Measurements taken from patent US20260226031A1, “NOVEL COMPOUNDS” (NRG THERAPEUTICS LTD., priority 2023, published 2026).

Experiments:
[1] = system: mPTP; experiment: mPTP activity (Ca2+ retention) assay in isolated rat liver mitochondria; assay type: biochemical; settings: for mPTP Rat liver pIC50*: isolated rat liver mitochondria, Fluo5N fluorescence at 10 min after CaCl2 (75 μM) bolus, DMSO 0%, 5 μM cyclosporin A 100% inhibition
From the text: Pharmacological inhibition or modulation of the mPTP can be measured in well characterised ‘Ca^2+ retention’ assays performed in isolated mitochondria. In vitro, isolated mitochondria rapidly sequester exogenous Ca^2+ until the intramitochondrial Ca^2+ concentration reaches the threshold for mPTP activation. Once the pore is activated, mitochondrial integrity is compromised and the stored Ca^2+ is released. The distribution of Ca^2+ between extra- and intra-mitochondrial compartments can be measured in real time with the use of membrane-impermeant Ca^2+ sensitive fluorescent dyes. Depending on the configuration of the assay, inhibition or modulation of the mPTP either delays the opening of the pore or increases the concentration of Ca^2+ required to induce mPTP opening.
MPTP activity was measured in mitochondria freshly isolated from female Sprague Dawley (250 to 300 gram) rat livers using the following method. Cervical dislocation was performed on the rat. The liver was then perfused in-situ with ~40 ml cold Dulbecco's Phosphate Buffered Saline (DPBS) prior to dissection and transferred into 30 ml Isolation Buffer (250 mM Sucrose, 10 mM KCl, 1 mM EGTA, 1 mM EDTA, 25 mM HEPES, adjusted to pH 7.5 with 1M NaOH). Each lobe of the liver was then removed from the buffer, minced using tweezers and a scalpel into ~5 mm pieces then transferred into a 50 ml Potterton dounce homogenization tube on ice containing 30 ml ice-cold centrifugation buffer (300 mM Trehalose, 25 mM HEPES, 1 mM EGTA, 1 mM EDTA, 10 mM KCl, adjusted to pH 7.5 with 1M NaOH and supplemented with 0.1% bovine serum albumin (BSA) and complete protease inhibitor cocktail (one tablet of inhibitor per 50 mls of buffer). Homogenisation was carried out using a Teflon® pestle at 1800 rpm. The slurry was centrifuged at 800 g for 10 min at 4° C., then the supernatant centrifuged at 10,000 g for 10 min. The pellet was washed once with FLIPR assay buffer (75 mM Mannitol, 25 mM Sucrose, 5 mM Potassium Phosphate Monobasic, 20 mM Tris base, 100 mM KCl, 0.1% BSA adjusted to pH 7.4 with 5M HCl) centrifuged again, then resuspended in FLIPR assay buffer to a concentration of 8.8 mg/ml protein.
Tested compounds (10 mM stock in DMSO) were serially diluted in DMSO in half log steps to generate 10 test concentrations (final concentrations in assay 30 μM to 1 nM). An intermediate dilution of 5 μl DMSO samples into 247 μl FLIPR assay buffer was carried out prior to transfer of 5 μl into duplicate wells of a 384 well polypropylene assay plate. Control wells were 0.5% (v/v) DMSO and 5 μM cyclosporin A.
A stock mitochondria/Fluo5N assay solution was prepared in 5.6 ml FLIPR assay buffer (at RT) supplemented with succinate disodium salt (10 mM), rotenone (1 μM), Fluo5N pentapotassium salt (2 μM) and 1 ml mitochondria suspension, then transferred (15 μl) into the assay plate containing test compounds and incubated for 10 min at RT. Assay plates were processed for fluorescence detection on either a FLIPR Tetra (Molecular Devices) or CLARIOstar (BMG) plate reader. For kinetic fluorescence detection on the FLIPR, dye fluorescence was measured every 3 sec for a total of 10 min. After 12 sec, a 2.5 μl bolus of CaCl2 (75 μM) was added from a source plate containing 675 μM CaCl2 in FLIPR assay buffer. Alternatively, the 2.5 μl addition of CaCl2 was performed using a Viaflow 384, plates were incubated at RT for 10 min, and dye fluorescence measured after 10 min on the CLARIOstar plate reader. pIC50 values for tested compounds were calculated using the fluorescence value collected at the 10 min timepoint on either plate reader, with % inhibition calculated using the DMSO control and cyclosporin A values as 0 and 100% respectively.

[2] = system: mPTP; experiment: mPTP activity (Ca2+ retention) assay in isolated rat brain mitochondria; assay type: biochemical; settings: isolated rat brain mitochondria; Fluo5N fluorescence at 10 min after Ca2+ (75 μM) bolus
Protocol: MPTP activity was measured in brain mitochondria freshly isolated from female Sprague Dawley (250 to 300 gram) rats. Anaesthetised rats were perfused in-situ with ~40 ml cold Dulbecco's Phosphate Buffered Saline (DPBS), then brains dissected and transferred into 30 ml Isolation Buffer (225 mM mannitol, 75 mM sucrose, 1 mM EGTA, adjusted to pH 7.4 with 1M NaOH). The brain was minced using tweezers and a scalpel into ~5 mm pieces then transferred into a 50 ml Potterton Dounce homogenization tube on ice containing 10 ml ice-cold isolation buffer (as above with addition of Complete Protease inhibitor; 1 tablet per 50 ml buffer). Homogenisation was carried out using a Teflon® pestle at 1800 rpm. The slurry was centrifuged at 2000 g for 10 min at 4° C., then the supernatant centrifuged at 12,000 g for 9 min. The pellet was resuspended with a dounce homogeniser in isolation buffer as above but with the addition of 0.02% digitonin, centrifuged at 12,000 g for 11 min and finally resuspended in 5 ml modified isolation buffer (as above but with EGTA reduced to 0.1 mM).
Test compounds were prepared in 384 well polypropylene assay plates as described above for the liver mitochondria assay. A stock mitochondria/Fluo5N assay solution was prepared in 5.6 ml assay buffer (120 mM mannitol, 40 mM MOPS, 5 mM KH2PO4, 60 mM KCl, 10 mM pyruvate, 2 mM malate, 2 mM MgCl2, 20 μM ADP, 1.26 μM oligomycin A, adjusted to pH 7.4) supplemented with Fluo5N pentapotassium salt (2 μM) and 1 ml mitochondria suspension, then transferred (15 μl) into the assay plate containing test compounds and incubated for 10 min at RT. Assay plates were then transferred to a FLIPR Tetra plate reader (Molecular Devices). Dye fluorescence was then measured every 3 sec for a total of 10 min.

SMILES | mPTP Rat liver pIC50* [1] | mPTP Rat brain pIC50 [2] | activity in the rat liver mitochondria assay (ranking in words) ([1]; among tested Example compounds)
O=C(c1cncc(=O)[nH]1)N1CC(c2ccccc2)C2(CCCC2)C1 (single isomer, unassigned) [Example 17b, 6-[4-phenyl-2-azaspiro[4.4]nonane-2-carbonyl]-1H-pyrazin-2-one] | <4.52 | <4.52 | –
O=C(c1cncc(=O)[nH]1)N1CC(c2ccc(F)cc2)C2(CCC2)C1 (single isomer, unassigned) [Example 35b, 6-(8-(4-fluorophenyl)-6-azaspiro[3.4]octane-6-carbonyl)pyrazin-2(1H)-one] | 5.57 | 5.79 | –
O=C(c1cncc(=O)[nH]1)N1CC(c2ccc(F)c(F)c2)C2(CCC2)C1 (single isomer, unassigned) [Example 45a, 6-(8-(3,4-difluorophenyl)-6-azaspiro[3.4]octane-6-carbonyl)pyrazin-2(1H)-one] | 6.15 | 7.45 | –
O=C(c1cccc(=O)[nH]1)N1CC(c2ccccc2)C2(CCC2)C1 (single isomer, unassigned) [Example 26a, 6-(8-phenyl-6-azaspiro[3.4]octane-6-carbonyl)pyridin-2(1H)-one] | 4.88 | 4.96 | –
O=C(c1noc(=O)[nH]1)N1CC(c2cccc(F)c2F)C2(CCC2)C1 (single isomer, unassigned) [Example 44b, 3-(8-(2,3-difluorophenyl)-6-azaspiro[3.4]octane-6-carbonyl)-1,2,4-oxadiazol-5(4H)-one] | <4.52 | 5.19 | –
O=C(c1cncc(O)c1)N1CC(c2ccccc2)C2(CCC2)C1 (stereo not drawn) [Example 1a, (5-hydroxypyridin-3-yl)(8-phenyl-6-azaspiro[3.4]octan-6-yl)methanone] | 5.68 | 6.73 | –
CC1(C)CN(C(=O)c2cncc(=O)[nH]2)CC1c1ccccc1 (single isomer, unassigned) [Example 10b, 6-(3,3-dimethyl-4-phenylpyrrolidine-1-carbonyl)pyrazin-2(1H)-one] | 5.19 | 6.07 | –
O=C(c1cncc(=O)[nH]1)N1CC(c2ccc(F)cc2)C2(CCC2)C1 (single isomer, unassigned) [Example 35a, 6-(8-(4-fluorophenyl)-6-azaspiro[3.4]octane-6-carbonyl)pyrazin-2(1H)-one] | 6.82 | 7.5 | highest activity
O=C(c1cncc(=O)[nH]1)N1CC(c2ccc(Br)cc2)C2(CCC2)C1 (single isomer, unassigned) [Example 29a, 6-(8-(4-bromophenyl)-6-azaspiro[3.4]octane-6-carbonyl)pyrazin-2(1H)-one] | 4.59 | 6.2 | –
O=C(c1noc(=O)[nH]1)N1CC(c2ccc(F)cc2F)C2(CCC2)C1 (single isomer, unassigned) [Example 48a, 3-(8-(2,4-difluorophenyl)-6-azaspiro[3.4]octane-6-carbonyl)-1,2,4-oxadiazol-5(4H)-one] | 5.53 | 6.47 | –
N#Cc1ccc(C2CN(C(=O)c3cncc(=O)[nH]3)CC23CCC3)cc1 (single isomer, unassigned) [Example 20a, 4-[6-(6-oxo-1H-pyrazine-2-carbonyl)-6-azaspiro[3.4]octan-8-yl]benzonitrile] | <4.52 | 4.64 | –
Cn1nc(C(=O)N2CC(c3ccccc3F)C3(CCC3)C2)[nH]c1=O (stereo not drawn) [Example 11, 5-(8-(2-fluorophenyl)-6-azaspiro[3.4]octane-6-carbonyl)-2-methyl-2,4-dihydro-3H-1,2,4-triazol-3-one] | 4.75 | 6.25 | –
O=C(c1cncc(O)c1)N1CC(c2ccccc2)C2(CCC2)C1 (single isomer, unassigned) [Example 1b, (5-hydroxypyridin-3-yl)(8-phenyl-6-azaspiro[3.4]octan-6-yl)methanone] | 6.01 | 6.94 | –
O=C(c1cnn[nH]1)N1CC(c2ccccc2)C2(CCC2)C1 (single isomer, unassigned) [Example 14a, 8-Phenyl-6-(3H-1,2,3-triazole-4-carbonyl)-6-azaspiro[3.4]octane] | 5.23 | 5.21 | –
O=C(c1nccc(=O)[nH]1)N1CC(c2ccccc2)C2(CCC2)C1 (single isomer, unassigned) [Example 21a, 2-[8-phenyl-6-azaspiro[3.4]octane-6-carbonyl]-3H-pyrimidin-4-one] | 5.94 | 6.98 | –
CCC1CN(C(=O)c2cncc(=O)[nH]2)CC1c1ccccc1 (single isomer, unassigned) [Example 15d, 6-(3-ethyl-4-phenylpyrrolidine-1-carbonyl)pyrazin-2(1H)-one] | <4.52 | <4.52 | –
O=C(c1cc(O)no1)N1CC(c2ccccc2)C2(CCC2)C1 (single isomer, unassigned) [Example 23a, (3-hydroxyisoxazol-5-yl)(8-phenyl-6-azaspiro[3.4]octan-6-yl)methanone] | 6.17 | 7.22 | –
O=C(c1cncc(=O)[nH]1)N1CC(c2cccc(Cl)c2)C2(CCC2)C1 (single isomer, unassigned) [Example 31a, 6-(8-(3-chlorophenyl)-6-azaspiro[3.4]octane-6-carbonyl)pyrazin-2(1H)-one] | 6.17 | 7.22 | –
O=C(c1cncc(O)n1)N1CC(c2ccccc2)C2(CCC2)C1 (single isomer, unassigned) [Example 6b, (6-hydroxypyrazin-2-yl)(8-phenyl-6-azaspiro[3.4]octan-6-yl)methanone] | 4.59 | <4.52 | –
